Target: GCN2 (Homo sapiens, UniProt Q9P2K8)
Test: TR-FRET biochemical assay for inhibition of GCN2 (Example 106, for Example 1-4BB)
Conditions: Table 8

GCN2, sequence (Q9P2K8 whole entry): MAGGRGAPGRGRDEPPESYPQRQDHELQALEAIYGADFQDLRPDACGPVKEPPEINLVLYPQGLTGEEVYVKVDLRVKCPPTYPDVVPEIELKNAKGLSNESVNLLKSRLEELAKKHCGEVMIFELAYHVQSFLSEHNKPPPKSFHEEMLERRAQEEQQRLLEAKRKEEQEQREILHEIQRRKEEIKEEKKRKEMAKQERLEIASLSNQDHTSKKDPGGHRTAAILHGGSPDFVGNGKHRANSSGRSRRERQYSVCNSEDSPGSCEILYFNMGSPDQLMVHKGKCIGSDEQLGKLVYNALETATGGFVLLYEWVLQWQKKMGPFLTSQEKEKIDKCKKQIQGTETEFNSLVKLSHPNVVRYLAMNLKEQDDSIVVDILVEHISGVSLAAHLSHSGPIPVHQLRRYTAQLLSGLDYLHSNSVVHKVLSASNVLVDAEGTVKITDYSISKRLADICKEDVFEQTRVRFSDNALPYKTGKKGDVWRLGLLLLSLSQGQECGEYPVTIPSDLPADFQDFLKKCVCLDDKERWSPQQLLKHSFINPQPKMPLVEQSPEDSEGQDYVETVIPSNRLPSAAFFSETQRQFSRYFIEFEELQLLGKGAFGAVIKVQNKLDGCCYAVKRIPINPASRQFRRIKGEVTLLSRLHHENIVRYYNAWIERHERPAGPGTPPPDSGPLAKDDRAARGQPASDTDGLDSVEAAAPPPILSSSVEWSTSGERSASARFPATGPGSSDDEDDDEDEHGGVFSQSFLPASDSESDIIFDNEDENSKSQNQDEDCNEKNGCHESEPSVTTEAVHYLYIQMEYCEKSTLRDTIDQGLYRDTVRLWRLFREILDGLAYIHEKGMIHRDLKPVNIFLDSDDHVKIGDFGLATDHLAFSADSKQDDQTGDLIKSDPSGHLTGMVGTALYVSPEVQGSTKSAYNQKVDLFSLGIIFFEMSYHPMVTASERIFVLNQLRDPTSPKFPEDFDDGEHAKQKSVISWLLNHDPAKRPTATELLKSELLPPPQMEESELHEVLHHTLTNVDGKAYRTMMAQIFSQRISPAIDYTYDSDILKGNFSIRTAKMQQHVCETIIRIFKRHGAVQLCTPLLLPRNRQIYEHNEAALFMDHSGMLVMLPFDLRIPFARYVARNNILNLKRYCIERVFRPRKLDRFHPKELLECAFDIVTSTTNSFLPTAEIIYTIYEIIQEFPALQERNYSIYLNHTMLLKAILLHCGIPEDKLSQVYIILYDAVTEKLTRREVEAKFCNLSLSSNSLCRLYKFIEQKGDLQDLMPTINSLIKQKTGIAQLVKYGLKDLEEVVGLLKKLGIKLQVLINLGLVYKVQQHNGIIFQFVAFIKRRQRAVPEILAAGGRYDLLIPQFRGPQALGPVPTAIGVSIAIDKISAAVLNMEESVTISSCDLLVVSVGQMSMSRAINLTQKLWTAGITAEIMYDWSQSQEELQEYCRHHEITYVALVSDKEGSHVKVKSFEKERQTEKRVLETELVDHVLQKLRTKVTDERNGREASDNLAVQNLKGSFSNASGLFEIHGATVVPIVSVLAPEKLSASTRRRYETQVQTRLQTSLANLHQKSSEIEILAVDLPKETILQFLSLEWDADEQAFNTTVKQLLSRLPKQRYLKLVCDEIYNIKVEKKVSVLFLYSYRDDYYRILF

| IC50 [µM] | Compound |
| --- | --- |
| < 0.5 | O=S(=O)(Nc1ccc(F)c(-c2ccc3c(-c4ncc[nH]4)n[nH]c3c2F)c1F)c1cccc(Cl)c1Cl [Example 2BL, 2,3-dichloro-N-(2,4-difluoro-3-(7-fluoro-3-(1H-imidazol-2-yl)-1H-indazol-6-yl)phenyl)-benzenesulfonamide] |
| < 0.5 | Cc1ncc(F)cc1S(=O)(=O)Nc1ccc(F)c(-c2ccc3c(-c4ncc[nH]4)n[nH]c3c2F)c1F [Example 2AB, N-(2,4-difluoro-3-(7-fluoro-3-(1H-imidazol-2-yl)-1H-indazol-6-yl)phenyl)-5-fluoro-2-methylpyridine-3-sulfonamide] |
| < 0.5 | COc1ncc(Cl)cc1S(=O)(=O)Nc1cccc(-c2ccc3c(-c4ncc[nH]4)n[nH]c3c2F)c1C#N [Example 2AD, 5-chloro-N-(2-cyano-3-(7-fluoro-3-(1H-imidazol-2-yl)-1H-indazol-6-yl)phenyl)-2-methoxypyridine-3-sulfonamide] |
| < 0.5 | O=S(=O)(Nc1ccc(F)c(-c2ccc3c(-c4ncc[nH]4)n[nH]c3c2F)c1F)c1cc(Cl)ccc1Cl [Example 2AX, 2,5-dichloro-N-(2,4-difluoro-3-(7-fluoro-3-(1H-imidazol-2-yl)-1H-indazol-6-yl)phenyl)-benzenesulfonamide] |
| < 0.5 | COc1ncc(Cl)cc1S(=O)(=O)Nc1ccc(F)c(-c2ccc3c(C(=O)NCCCO)n[nH]c3c2F)c1F [Example 2CI, 6-(3-((5-chloro-2-methoxy-pyridine)-3-sulfonamido)-2,6-difluorophenyl)-7-fluoro-N-(3-hydroxypropyl)-1H-indazole-3-carboxamide] |
| < 0.5 | COc1ncc(Cl)cc1S(=O)(=O)Nc1ccc(F)c(-c2ccc3c(C(=O)NCCN(C)C)n[nH]c3c2F)c1F [Example 2CF, 6-(3-((5-chloro-2-methoxy-pyridine)-3-sulfonamido)-2,6-difluorophenyl)-N-(2-(di-methylamino)ethyl)-7-fluoro-1H-indazole-3-carboxamide] |
| < 0.5 | COc1ncc(Cl)cc1S(=O)(=O)Nc1ncnc(-c2ccc3c(-c4ncc[nH]4)n[nH]c3c2F)c1F [Example 2AK, 5-chloro-N-(5-fluoro-6-(7-fluoro-3-(1H-imidazol-2-yl)-1H-indazol-6-yl)pyrimidin-4-yl)-2-methoxypyridine-3-sulfonamide] |
| > 10 | CC(C)c1ccc(S(=O)(=O)Nc2ccc(F)c(-c3ccc4c(-c5ncc[nH]5)n[nH]c4c3F)c2F)cc1 [Example 2G, N-(2,4-difluoro-3-(7-fluoro-3-(1H-imidazol-2-yl)-1H-indazol-6-yl)phenyl)-4-isopropyl-benzenesulfonamide] |
| 2.5 to 10 | Cn1ncc(S(=O)(=O)Nc2ccc(F)c(-c3ccc4c(-c5ncc[nH]5)n[nH]c4c3F)c2F)n1 [Example 2Y, N-(2,4-difluoro-3-(7-fluoro-3-(1H-imidazol-2-yl)-1H-indazol-6-yl)phenyl)-2-methyl-2H-l,2,3-triazole-4-sulfonamide] |

Same assay, conditions: Table 9

| Compound | IC50 [µM] |
| --- | --- |
| COc1ncc(F)cc1S(=O)(=O)Nc1ccnc(-c2ccc3c(-c4ncc[nH]4)n[nH]c3c2F)c1C#N [Example 29, N-(3-Cyano-2-(7-fluoro-3-(1H-imidazol-2-yl)-1H-indazol-6-yl)pyridin-4-yl)-5-fluoro-2-methoxypyridine-3-sulfonamide] | 2.5 to 10 |
| COc1ncc(F)cc1S(=O)(=O)Nc1ccc(F)c(-c2ccc3c(-c4nc(C(N)=O)c[nH]4)n[nH]c3c2F)c1F [Example 20, 2-(6-(2,6-Difluoro-3-((5-fluoro-2-methoxypyridine)-3-sulfonamido)phenyl)-7-fluoro-1H-indazol-3-yl)-1H-imidazole-4-carboxamide] | < 0.5 |

Further lines, results first:

| IC50 [µM] | Compound |
| --- | --- |
| < 0.5 | Cc1ncc(C#N)cc1S(=O)(=O)Nc1ccc(F)c(-c2ccc3c(-c4ncc[nH]4)n[nH]c3c2F)c1F [Example 3I, 5-cyano-N-(2,4-difluoro-3-(7-fluoro-3-(1H-imidazol-2-yl)-1H-indazol-6-yl)phenyl)-2-methylpyridine-3-sulfonamide] |
| < 0.5 | COc1ncc(Cl)cc1S(=O)(=O)Nc1ccc(F)c(-c2ccc3c(C(=O)Nc4c[nH]nc4C)n[nH]c3c2F)c1F [Example 3CS, 6-(3-((5-chloro-2-methoxy-pyridine)-3-sulfonamido)-2,6-difluorophenyl)-7-fluoro-N-(3-methyl-1H-pyrazol-4-yl)-1H-indazole-3-carboxamide] |
| 0.5 to 2.5 | Cc1ncc(F)cc1S(=O)(=O)Nc1cccc(-c2ccc3c(-c4ncc[nH]4)n[nH]c3c2C)c1F [Example 3Y, N-(3-(3-(1H-imidazol-2-yl)-7-methyl-1H-indazol-6-yl)-2-fluorophenyl)-5-fluoro-2-methylpyridine-3-sulfonamide] |
| < 0.5 | COc1ncc(Cl)cc1S(=O)(=O)Nc1cc(F)cc(-c2ccc3c(C(=O)N[C@H]4CCN(C)C4)n[nH]c3c2F)c1F [Example 3BM, 6-(3-((5-chloro-2-methoxy-pyridine)-3-sulfonamido)-2,5-difluorophenyl)-7-fluoro-N-((S)-1-methylpyrrolidin-3-yl)-1H-indazole-3-carboxamide] |
| 0.5 to 2.5 | COc1ncc(F)cc1S(=O)(=O)Nc1ccc(F)c(-c2ccc3c(C(=O)N[C@H]4CCN(C)C4)n[nH]c3c2F)c1F [Example 3AC, 6-(3-((5-fluoro-2-methoxy-pyridine)-3-sulfonamido)-2,6-difluorophenyl)-7-fluoro-N-((S)-1-methylpyrrolidin-3-yl)-1H-indazole-3-carboxamide] |
| 0.5 to 2.5 | Cc1ccc(S(=O)(=O)Nc2ccc(F)c(-c3ccc4c(C(=O)NCCCO)n[nH]c4c3F)c2F)c(C)n1 [Example 3CP, 6-(3-((2,6-dimethylpyridine)-3-sulfonamido)-2,6-difluorophenyl)-7-fluoro-N-(3-hydroxypropyl)-1H-indazole-3-carboxamide] |
| 0.5 to 2.5 | COc1ncc(F)cc1S(=O)(=O)Nc1cccc(-c2ccc3c(C(=O)NC[C@H](O)CO)n[nH]c3c2F)c1F [Example 3AY, 6-(2-fluoro-3-((5-fluoro-2-methoxypyridine)-3-sulfonamido)phenyl)-N-((S)-2,3-dihydroxypropyl)-7-fluoro-1H-indazole-3-carboxamide] |
| 0.5 to 2.5 | COc1ncc(Cl)cc1S(=O)(=O)Nc1ccc(F)c(-c2ccc3c(C(=O)Nc4nnn(C)n4)n[nH]c3c2F)c1F [Example 3CZ, 6-(3-((5-chloro-2-methoxy-pyridine)-3-sulfonamido)-2,6-difluorophenyl)-7-fluoro-N-(2-methyl-2H-tetrazol-5-yl)-1H-indazole-3-carboxamide] |
| < 0.5 | O=C(Nc1cnn(CCO)c1)c1n[nH]c2c(F)c(-c3c(F)ccc(NS(=O)(=O)c4cc(F)cc5c4CCC5O)c3F)ccc12 (centres unmarked) [Example 4AJ] |
| < 0.5 | COc1ncc(F)cc1S(=O)(=O)Nc1ccc(F)c(-c2ccc3c(C(=O)Nc4ccc(=O)n(C)c4)n[nH]c3c2F)c1F [Example 3BP, 6-(2,6-difluoro-3-((5-fluoro-2-methoxypyridine)-3-sulfonamido)phenyl)-7-fluoro-N-(1-methyl-6-oxo-1,6-dihydropyridin-3-yl)-1H-indazole-3-carboxamide] |
| < 0.5 | COc1ncc(Cl)cc1S(=O)(=O)Nc1ccc(F)c(-c2ccc3c(-c4cnn[nH]4)n[nH]c3c2F)c1F [Example 4AN] |
| < 0.5 | COc1ncc(Cl)cc1S(=O)(=O)Nc1cc(F)cc(-c2ccc3c(C(N)=O)n[nH]c3c2F)c1F [Example 3CF, 6-(3-((5-chloro-2-methoxy-pyridine)-3-sulfonamido)-2,5-difluorophenyl)-7-fluoro-1H-indazole-3-carboxamide] |

Source: patent US20220388964A1 (HiberCell, Inc., priority 2019, published 2022)
